*1 amine or outer side, *2 acyl side, *3 side chain or, on linkers, in order; H or OH if unused. Where a SMILES comes first, the peptide text is derived from it. [ ]: non-standard residue; d: D form. The star is where a group is joined. Hydrocinnamoyl(4-OSO3H) = O=C(CCc1ccc(OS(=O)(=O)O)cc1)*; X2 = O=C([C@@H]1CC(OS(=O)(=O)O)CN1[*:1])[*:2]; X5 = CCC[C@H]1CCN([*:1])[C@@H]1C(=O)[*:2]; X4 = O=C(c1ccc2cc(OS(=O)(=O)O)ccc2c1)*; X1 = CCCC1CCN([*:1])[C@@H]1C(=O)[*:2]; X3 = O=C(/C(=C/c1ccccc1)N[*:1])[*:2]; NMeF = CN[C@@H](Cc1ccccc1)C(=O)O; Nle = CCCC[C@H](N)C(=O)O; Ava = NCCCCC(=O)O
Columns and labels:
[1] = target: Gastrin/cholecystokinin type B receptor (Cavia porcellus); assay: Evaluated in vitro for its binding affinity towards cholecystokinin type B receptor of guinea pig cortex
[2] = target: Gastrin/cholecystokinin type B receptor (Cavia porcellus); assay: In vitro binding affinity towards Cholecystokinin type B receptor of guinea pig cortex
[3] = target: Cholecystokinin receptor type A (Cavia porcellus); assay: Evaluated in vitro for its binding affinity towards cholecystokinin type A receptor of guinea pig pancreas
[4] = target: Gastrin/cholecystokinin type B receptor (Cavia porcellus); assay: Evaluated in vitro for its binding affinity towards cholecystokinin type B receptor of guinea pig cortex; remark: listed apart in the source

| IC50 [1] [nM] | IC50 [3] [nM] | Compound | also measured |
| --- | --- | --- | --- |
| 0.5 | – | CCCC[C@H](NC(=O)CCc1ccc(OS(=O)(=O)O)cc1)C(=O)NCC(=O)N[C@@H](Cc1c[nH]c2ccccc12)C(=O)N[C@@H](CCCC)C(=O)N[C@@H](CC(=O)O)C(=O)N[C@@H](Cc1ccccc1)C(N)=O | – |
| – | – | CCCC[C@H](NC(=O)[C@H](Cc1c[nH]c2ccccc12)NC(=O)CNC(=O)[C@@H](CCCC)NC(=O)CCc1ccc(OS(=O)(=O)O)cc1)C(=O)N[C@@H](CC(=O)O)C(=O)N[C@@H](Cc1ccccc1)C(N)=O | IC50 [2]: 7.9 nM |
| 15 | – | CCCC[C@H](NC(=O)[C@H](Cc1c[nH]c2ccccc12)NC(=O)CN1CC[C@H](NC(=O)CCc2ccc(OS(=O)(=O)O)cc2)C1=O)C(=O)N[C@@H](CC(=O)O)C(=O)N[C@@H](Cc1ccccc1)C(N)=O | – |
| 32 | – | CCCC[C@H](NC(=O)c1ccc2cc(OS(=O)(=O)O)ccc2c1)C(=O)NCC(=O)N[C@@H](Cc1c[nH]c2ccccc12)C(=O)N[C@@H](CCCC)C(=O)N[C@@H](CC(=O)O)C(=O)N[C@@H](Cc1ccccc1)C(N)=O (X4-[Nle]GW[Nle]DF-NH2) | – |
| 1.1 | – | CC(C)C[C@H](NC(=O)[C@H](Cc1c[nH]c2ccccc12)NC(=O)CCCCNC(=O)CCc1ccc(OS(=O)(=O)O)cc1)C(=O)N[C@@H](CC(=O)O)C(=O)N[C@@H](Cc1ccccc1)C(N)=O ({Hydrocinnamoyl(4-OSO3H)-Ava}-WLDF-NH2) | – |
| 0.59 | – | CCCC[C@H](NC(=O)[C@H](Cc1c[nH]c2ccccc12)NC(=O)CNC(=O)[C@H](CC(C)C)NC(=O)CCc1ccc(OS(=O)(=O)O)cc1)C(=O)N[C@@H](CC(=O)O)C(=O)N[C@@H](Cc1ccccc1)C(N)=O ({Hydrocinnamoyl(4-OSO3H)}-LGW[Nle]DF-NH2) | – |
| 0.9 | – | CCC[C@H]1CCN(C(=O)[C@H](Cc2c[nH]c3ccccc23)NC(=O)CNC(=O)[C@@H]2CCCN2C(=O)CCc2ccc(OS(=O)(=O)O)cc2)[C@@H]1C(=O)N[C@@H](CC(=O)O)C(=O)N(C)[C@@H](Cc1ccccc1)C(N)=O ({Hydrocinnamoyl(4-OSO3H)}-PGW[X5]D[NMeF]-NH2) | – |
| – | 5.3 | CCCC[C@H](NC(=O)CCc1ccc(OS(=O)(=O)O)cc1)C(=O)NCC(=O)N[C@@H](Cc1c[nH]c2ccccc12)C(=O)N[C@@H](CCCC)C(=O)N[C@@H](CC(=O)O)C(=O)N/C(=C\c1ccccc1)C(N)=O ({Hydrocinnamoyl(4-OSO3H)}-[Nle]GW[Nle]D[X3]-NH2) | – |
| – | 16 | CCCC[C@H](NC(=O)CCc1ccc(OS(=O)(=O)O)cc1)C(=O)NCC(=O)N[C@@H](Cc1c[nH]c2ccccc12)C(=O)N[C@@H](CCCC)C(=O)N1CC(OS(=O)(=O)O)C[C@H]1C(=O)N[C@@H](Cc1ccccc1)C(N)=O (some centres undefined) ({Hydrocinnamoyl(4-OSO3H)}-[Nle]GW[Nle][X2]F-NH2) | IC50 [4]: 140 nM |
| – | 4.2 | CCCC[C@H](NC(=O)CCc1ccc(OS(=O)(=O)O)cc1)C(=O)NCC(=O)N[C@@H](Cc1c[nH]c2ccccc12)C(=O)N1CCC(CCC)[C@H]1C(=O)N[C@@H](CC(=O)O)C(=O)N(C)[C@@H](Cc1ccccc1)C(N)=O (some centres undefined) ({Hydrocinnamoyl(4-OSO3H)}-[Nle]GW[X1]D[NMeF]-NH2) | IC50 [4]: 0.3 nM |
| – | 0.99 | CCCC[C@H](NC(=O)CCc1ccc(OS(=O)(=O)O)cc1)C(=O)NCC(=O)N[C@@H](Cc1c[nH]c2ccccc12)C(=O)N[C@@H](CCCC)C(=O)N[C@@H](CC(=O)O)C(=O)N(C)[C@@H](Cc1ccccc1)C(N)=O [CCK7 analogue] ({Hydrocinnamoyl(4-OSO3H)}-[Nle]GW[Nle]D[NMeF]-NH2) | IC50 [4]: 10 nM |

— BindingDB's records for doi:10.1021/jm00094a001 (Abbott Laboratories, 1992)
